This note sets out measurements from patent publication US20250230193A1, “CYCLIC COMPOUND HAVING SELECTIVE KRAS INHIBITORY EFFECT ON HRAS AND NRAS” (CHUGAI SEIYAKU KABUSHIKI KAISHA, priority 2022, published 2025).

In assay [1] the target is GDP-bound HRAS wild-type protein (Homo sapiens, UniProt P01112). Briefly: Binding to HRAS by surface plasmon resonance (SPR), Single Cycle Kinetics. The conditions noted are these: SPR; for HRAS/KRAS (ratio of KD value with respect to GDP-bound HRAS wild-type protein to KD value with respect to KRAS): GDP-bound wild-type proteins; for HRAS/KRAS (ratio of KD value with respect to HRAS to KD value with respect to KRAS) / HRAS/KRAS (ratio of KD value for HRAS to KD value for KRAS): GDP-bound HRAS wild-type vs GDP-bound KRAS wild-type. For orientation: SPR reads the build-up and loss of mass on a sensor chip optically.

The target of assay [2] is GDP-bound NRAS wild-type protein (Homo sapiens, UniProt P01111). Briefly: Binding to NRAS by surface plasmon resonance (SPR), Single Cycle Kinetics. The conditions noted are these: SPR; for NRAS/KRAS (ratio of KD value with respect to GDP-bound NRAS wild-type protein to KD value with respect to KRAS): GDP-bound wild-type proteins; for NRAS/KRAS (ratio of KD value with respect to NRAS to KD value with respect to KRAS) / NRAS/KRAS (ratio of KD value for NRAS to KD value for KRAS): GDP-bound NRAS wild-type vs GDP-bound KRAS wild-type.
Sequence of GDP-bound NRAS wild-type protein (P01111 whole entry): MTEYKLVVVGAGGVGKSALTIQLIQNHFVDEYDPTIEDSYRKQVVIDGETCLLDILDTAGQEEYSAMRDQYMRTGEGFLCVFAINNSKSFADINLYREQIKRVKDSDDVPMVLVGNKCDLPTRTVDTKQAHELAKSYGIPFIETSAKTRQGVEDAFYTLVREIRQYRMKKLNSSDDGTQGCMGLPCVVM

Sequence of GDP-bound HRAS wild-type protein (P01112 whole entry): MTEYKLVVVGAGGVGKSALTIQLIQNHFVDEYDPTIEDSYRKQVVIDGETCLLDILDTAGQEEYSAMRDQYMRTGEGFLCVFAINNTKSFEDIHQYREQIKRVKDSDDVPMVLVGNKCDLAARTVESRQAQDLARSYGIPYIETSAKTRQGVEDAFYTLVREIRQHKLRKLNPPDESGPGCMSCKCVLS

With `CCO[C@@H]1C[C@H]2C(=O)NC3(CC(C)(C)C3)C(=O)N(C)[C@@H](C3CCCC3)C(=O)N(C)[C@H](C(=O)N(C)C)CC(=O)N(C)[C@H]3CCCCCc4ccc(cc4)C[C@@H](C(=O)N(C)CC(=O)N[C@@H](CCc4ccc(C(F)(F)F)c(OC)c4)C(=O)N2C1)N1CC/C=C\C[C@@H](C1=O)N(C)C(=O)CN(C1CC1)C(=O)[C@H]([C@@H](C)CC)NC3=O` [PP3075], the “HRAS/KRAS (ratio of KD value with respect to GDP-bound HRAS wild-type protein to KD value with respect to KRAS)” value in assay [1] was “A (a compound having 10 or more and less than 20 is denoted as A)”. Besides, the “NRAS/KRAS (ratio of KD value with respect to GDP-bound NRAS wild-type protein to KD value with respect to KRAS)” value in assay [2] is “A (a compound having 10 or more and less than 20 is denoted as A)”.

For `CCCOC[C@H]1C(=O)N[C@@H]([C@@H](C)CC)C(=O)N(C)CC(=O)N(C)[C@H]2C/C=C\CCN(C2=O)[C@@H](CC2CCC(F)(F)CC2)C(=O)N(C)CC(=O)N[C@@H](CCc2ccc(C(F)(F)F)c(OC)c2)C(=O)N2C[C@@H](C)C[C@H]2C(=O)N(C)C2(CCC2)C(=O)N(C)[C@@H](C2CCCC2)C(=O)N(C)[C@H](C(=O)N(C)C)CC(=O)N1C` [PP2377], the “HRAS/KRAS (ratio of KD value with respect to HRAS to KD value with respect to KRAS)” value in assay [1] is “A (a compound having 10 or more and less than 20 is denoted as A)”. Moreover, the “NRAS/KRAS (ratio of KD value with respect to NRAS to KD value with respect to KRAS)” value in assay [2] was “A (a compound having 10 or more and less than 20 is denoted as A)”.

For `CCC[C@H]1C(=O)N[C@@H]([C@@H](C)CC)C(=O)N(C)CC(=O)N(C)[C@H]2C/C=C\CCN(C2=O)[C@@H](Cc2ccc(C)cc2)C(=O)N(C)CC(=O)N[C@@H](CCc2ccc(C(F)(F)F)c(OC)c2)C(=O)N2C[C@@H](C)C[C@H]2C(=O)NC2(CC(C)(C)C2)C(=O)N(C)[C@@H](C2CCCC2)C(=O)N(C)[C@H](C(=O)N(C)CC)CC(=O)N1C` [PP1889], in assay [1] (KD ratio), the “HRAS/KRAS (ratio of KD value for HRAS to KD value for KRAS)” value is “B (a compound having 3 or more and less than 10 is denoted as B)”. Besides, the “NRAS/KRAS (ratio of KD value for NRAS to KD value for KRAS)” value in assay [2] (KD ratio) is “A (a compound having 10 or more and less than 20 is denoted as A)”.

`CCC[C@H]1C(=O)N[C@@H]([C@@H](C)CC)C(=O)N(C)CC(=O)N(C)[C@H]2C/C=C\CCN(C2=O)[C@@H](Cc2ccc(C(F)(F)F)cc2)C(=O)N(C)CC(=O)N[C@@H](CCc2ccc(C(F)(F)F)c(Cl)c2)C(=O)N2C[C@H](OCC)C[C@H]2C(=O)NC2(CC(C)(C)C2)C(=O)N(C)[C@@H](CC(F)(F)F)C(=O)N(C)[C@H](C(=O)N(C)C)CC(=O)N1C` [PP2975]: the “HRAS/KRAS (ratio of KD value with respect to GDP-bound HRAS wild-type protein to KD value with respect to KRAS)” value in assay [1] was “A (a compound having 10 or more and less than 20 is denoted as A)”. For the same molecule, the “NRAS/KRAS (ratio of KD value with respect to GDP-bound NRAS wild-type protein to KD value with respect to KRAS)” value in assay [2] is “A (a compound having 10 or more and less than 20 is denoted as A)”.

As to `CCO[C@@H]1C[C@H]2C(=O)NC3(CCC3)C(=O)N(C)[C@@H](C3CCCC3)C(=O)N(C)[C@H](C(=O)N(C)C)CC(=O)N(C)[C@@H](CC)C(=O)N[C@@H]([C@@H](C)CC)C(=O)N(C)CC(=O)N(C)[C@H]3CCCCCN(C3=O)[C@@H](Cc3ccc(F)c(C)c3)C(=O)N(C)CC(=O)N[C@@H](CCc3cc(F)c(C(F)(F)F)c(F)c3)C(=O)N2C1` [PP0912], in assay [1] (KD ratio), the “HRAS/KRAS (ratio of KD value with respect to HRAS to KD value with respect to KRAS)” value was “B (a compound having 3 or more and less than 10 is denoted as B)”. The “NRAS/KRAS (ratio of KD value with respect to NRAS to KD value with respect to KRAS)” value in assay [2] (KD ratio) is “B (a compound having 3 or more and less than 10 is denoted as B)”.

As for `CCCOC[C@H]1C(=O)N[C@@H]([C@@H](C)CC)C(=O)N(C)CC(=O)N(C)[C@H]2C/C=C\CCN(C2=O)[C@@H](Cc2ccc(C(F)(F)F)cc2)C(=O)N(C)CC(=O)N[C@@H](CCc2cc(F)c(C(F)(F)F)c(F)c2)C(=O)N2C[C@H](F)C[C@H]2C(=O)NC2(CC(C)(C)C2)C(=O)N(C)[C@@H](C2CCCC2)C(=O)N(C)[C@H](C(=O)N(C)CCC)CC(=O)N1C` [PP1698], the “HRAS/KRAS (ratio of KD value for HRAS to KD value for KRAS)” value in assay [1] (KD ratio) was “A (a compound having 10 or more and less than 20 is denoted as A)”. Also, in assay [2] (KD ratio), the “NRAS/KRAS (ratio of KD value for NRAS to KD value for KRAS)” value was “A (a compound having 10 or more and less than 20 is denoted as A)”.

In the case of `CC[C@H](C)[C@@H]1NC(=O)[C@H](CC(C)C)N(C)C(=O)C[C@@H](C(=O)N2CCOCC2)N(C)C(=O)[C@H](C2CCCC2)N(C)C(=O)C2(CCC2)NC(=O)[C@@H]2[C@@H](OCC3CC3)CCN2C(=O)[C@H](CCc2cc(F)c(C(F)(F)F)c(F)c2)NC(=O)CN(C)C(=O)[C@H](Cc2ccc(C(F)(F)F)cc2)N2CCCCC[C@@H](C2=O)N(C)C(=O)CN(C)C1=O` [PP1010], in assay [1] (KD ratio), the “HRAS/KRAS (ratio of KD value with respect to HRAS to KD value with respect to KRAS)” value is “B (a compound having 3 or more and less than 10 is denoted as B)”. Moreover, in assay [2] (KD ratio), the “NRAS/KRAS (ratio of KD value with respect to NRAS to KD value with respect to KRAS)” value was “B (a compound having 3 or more and less than 10 is denoted as B)”.
